Test results as given in patent publication US20260315484A1, “METHODS OF TREATING CANCER IN BCL2 INHIBITOR NAIVE SUBJECTS” (Curis, Inc., priority 2023, published 2026).

Legend:
AML and high-risk MDS = assay: Ongoing Phase 1 study in relapsed/refractory AML and high-risk MDS; format: in vivo, human patients; details: patients with relapsed/refractory AML and high-risk MDS
Description: To support the development of effective treatment regimens with Compound 1, a study was conducted to monitor bone marrow (BM) samples obtained from AML and high risk MDS patients with different prior histories of treatment. […]
• MTD (defined as the highest dose at which there is <33% dose-limiting toxicity rate in the first cycle of treatment in a minimum of 6 patients [time frame: 28 days]) • RP2D (determined by the Sponsor in consultation with the CSC, considering all aspects of safety, tolerability, biologic activity, pharmacokinetic and preliminary efficacy in the trial population [time frame: 24 months]) • Safety measured by adverse events, ECGs, chemistry and hematology laboratory values, vital signs, and physical examinations […]
• Pharmacokinetic parameters of Compound 1 measured by Cmax, Cmin, Tmax, AUC0-24, AUC0-inf, and T1/2 (time frame 24 months) • Clinical response in AML or hrMDS assessed as follows: • AML: • Proportion of patients who reach CR+CRh • Proportion of patients who reach CRi, or CR or CRh • hrMDS: overall response rate of CR+PR+mCR • Transfusion independence […]

[1] = Study Compound 1-101 (safety, exposure, activity at 200 mg BID); format: in vivo
From the text: Three patients with AML or MDS will be enrolled at the designated dose. If none of the first 3 patients experience a dose-limiting toxicity during the first cycle, patients may be enrolled into the next higher dose level. If 1 patient out of the first 3 experiences a dose-limiting toxicity, the dose level may be expanded with an additional 3 patients.

bone marrow (BM) blasts = assay: Clinical study of change in bone marrow blasts, BLC2 inhibitor naive vs prior-exposed patients; format: in vivo, human patients
From the text: FIG. 1A is a graph showing the results of a clinical study for the efficacy of emavusertib (Compound 1) administration on reducing bone marrow (BM) blasts in patients with blood cancer. Blasts are immature white blood cells that are usually found in small numbers in healthy bone marrow. High levels of blasts circulating in the blood are associated with cancer. This clinical study measured the change in blast levels before and after receiving Compound 1 treatment. Here, the relative change in blast levels before and after Compound 1 is compared between patients who had previously received BLC2 inhibitors in prior treatment and patients who were naïve to BLC2 inhibitors. The comparison groups each contain 22 high risk myelodysplastic syndrome (hrMDS) patients and 10 acute myeloid leukemia (AML) patients.
FIG. 1B is a graph showing baseline and best post-treatment blast levels of the subjects in FIG. 1A. […] Each patient is shaded according to their diagnosis, with high-risk myelodysplastic syndrome (MDS) patients tending to have lower blast levels than acute myeloid leukemia (AML) patients.
To support the development of effective treatment regimens with Compound 1, a study was conducted to monitor bone marrow (BM) samples obtained from AML and high risk MDS patients with different prior histories of treatment.
• Pharmacokinetic parameters of Compound 1 measured by Cmax, Cmin, Tmax, AUC0-24, AUC0-inf, and T1/2 (time frame 24 months) • Clinical response in AML or hrMDS assessed as follows: • AML: • Proportion of patients who reach CR+CRh • Proportion of patients who reach CRi, or CR or CRh • hrMDS: overall response rate of CR+PR+mCR • Transfusion independence
This is a Phase 1, open-label dose escalation and cohort expansion study of Compound 1 as a monotherapy in patients with AML or MDS and in combination with AZA in treatment-naïve, adult patients with AML or hrMDS, after first line therapy.

Cc1cc(-c2nc(C(=O)Nc3cc4oc(N5CCOCC5)nc4nc3N3CC[C@@H](O)C3)co2)ccn1 [Compound 1]
clinical activity (AML and high-risk MDS): demonstrated clinical activity | biologic activity and clinical efficacy [1]: demonstrating signs of biologic activity and clinical efficacy | drug exposure [1]: capable of achieving relevant levels of drug exposure | safety of starting dose [1]: safe | rate of response to Compound 1, as evidenced by reduced BM blast counts (bone marrow (BM) blasts; AML and high risk MDS, no history of BLC2 inhibitor treatment vs prior exposure): higher rate of response to Compound 1, as evidenced by reduced BM blast counts in hematology, compared to patients who had prior exposure to a BLC2 inhibitor | decrease in bone marrow blast counts from baseline to best post-baseline (bone marrow (BM) blasts; no prior vs prior BLC2 inhibitor exposure, hrMDS and AML patients, FIG. 1B): significantly higher decreases in bone marrow blast counts from baseline to best post-baseline compared to those subjects with prior BLC2 inhibitor exposure | relative change in bone marrow blast levels before and after Compound 1 (bone marrow (BM) blasts; patients naive to BLC2 inhibitors (e.g., venetoclax) vs previously exposed, comparison groups each 22 hrMDS and 10 AML, FIG. 1A): significant reduction in blasts compared to those who had been previously exposed to BLC2 inhibitors
